Assay results published in publication PMC8287724, “Reducing Auditory Nerve Excitability by Acute Antagonism of Ca^2+-Permeable AMPA Receptors” (Frontiers in Synaptic Neuroscience, 2021).

What was measured:
[1] = target: T1, hERG potassium channel (Kv 11.1) (Homo sapiens, UniProt Q12809); test: Radioligand binding assay, hERG potassium channel; settings: antagonist 1 μM, read-out: Mean% inhibition (N = 2) of radioligand binding
T1 construct: Eurofins Scientific, Inc
Description: (§1) Binding assays were conducted to evaluate the affinity of test compounds IEM-1460 and IEM-1925 (Eurofins Scientific, Inc.) for 15 targets: the human alpha-1 adrenergic (A1) receptor, histaminergic (H)-2 and−3 receptors, and muscarinic acetylcholine receptors-1 to−5 in transfected CHO cells by radioligand binding. The neuronal α4β2 and neuronal α7 cholinergic acetylcholine receptors were tested in transfected SH-SY5Y cells. The histaminergic-1 and−4 receptors were tested in transfected HEK-293 cells. Ion channel testing for AMPA and N-methyl-D-aspartate (NMDA) was performed in cells from the rat cerebral cortex. […] Non-specific binding was determined in the presence of 1 μM of DCPX. […] The filters were dried and then counted for radioactivity in a scintillation counter (Topcount, Packard) using a scintillation cocktail (Microscint 0, Packard). The results are expressed as a percent inhibition of the control radioligand specific binding: 100-[(measured specific binding)/(control specific binding) × 100]. […]
(§2) We tested the metabolic stability of the compounds with in vitro liver microsome stability assays (Table 1, right). […] We evaluated the compounds for potential toxicity with assays that test for inhibition of off-target ion channels and receptors. […]

[2] = test system: NMDA glutamate; test: Radioligand binding assay, NMDA receptor (rat cerebral cortex); settings: antagonist 1 μM
Description: as §1, §2

[3] = test system: AMPA glutamate (GluA2-containing); test: Radioligand binding assay, AMPA receptor (rat cerebral cortex); settings: antagonist 1 μM
Description: as §1, §2

[4] = target: T2, A1 adenosine GPCR (Homo sapiens, UniProt P30542); test: Radioligand binding assay, A1 receptor (transfected CHO cells); settings: antagonist 1 μM
T2 construct: host or cells: CHO cells
T2 sequence (P30542 whole entry): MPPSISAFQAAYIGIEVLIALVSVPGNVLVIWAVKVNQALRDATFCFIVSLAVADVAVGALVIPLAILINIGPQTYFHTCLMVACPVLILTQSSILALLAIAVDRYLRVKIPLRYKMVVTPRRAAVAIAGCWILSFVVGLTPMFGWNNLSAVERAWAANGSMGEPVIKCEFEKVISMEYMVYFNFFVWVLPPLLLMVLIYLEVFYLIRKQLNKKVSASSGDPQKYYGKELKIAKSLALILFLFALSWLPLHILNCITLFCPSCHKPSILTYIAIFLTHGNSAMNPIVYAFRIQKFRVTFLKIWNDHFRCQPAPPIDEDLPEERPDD
Description: as §1, §2

[5] = target: T3, H2 histamine GPCR (Homo sapiens, UniProt P25021); test: Radioligand binding assay, H2 receptor (transfected CHO cells); settings: antagonist 1 μM
T3 construct: host or cells: CHO cells
T3 sequence (P25021 whole entry): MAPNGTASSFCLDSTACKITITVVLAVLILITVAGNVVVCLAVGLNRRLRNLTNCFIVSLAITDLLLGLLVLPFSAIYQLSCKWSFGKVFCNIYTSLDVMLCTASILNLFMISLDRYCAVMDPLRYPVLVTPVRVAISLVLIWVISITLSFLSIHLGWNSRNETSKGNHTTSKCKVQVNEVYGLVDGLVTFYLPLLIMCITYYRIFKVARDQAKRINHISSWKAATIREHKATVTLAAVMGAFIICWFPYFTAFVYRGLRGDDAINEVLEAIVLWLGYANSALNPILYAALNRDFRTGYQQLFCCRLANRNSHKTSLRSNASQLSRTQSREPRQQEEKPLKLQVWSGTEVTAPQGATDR
Description: as §1, §2

[6] = target: T4, M1 acetylcholine GPCR (Homo sapiens, UniProt P11229); test: Radioligand binding assay, M1 receptor (transfected CHO cells); settings: antagonist 1 μM
T4 construct: host or cells: CHO cells
T4 sequence (P11229 whole entry): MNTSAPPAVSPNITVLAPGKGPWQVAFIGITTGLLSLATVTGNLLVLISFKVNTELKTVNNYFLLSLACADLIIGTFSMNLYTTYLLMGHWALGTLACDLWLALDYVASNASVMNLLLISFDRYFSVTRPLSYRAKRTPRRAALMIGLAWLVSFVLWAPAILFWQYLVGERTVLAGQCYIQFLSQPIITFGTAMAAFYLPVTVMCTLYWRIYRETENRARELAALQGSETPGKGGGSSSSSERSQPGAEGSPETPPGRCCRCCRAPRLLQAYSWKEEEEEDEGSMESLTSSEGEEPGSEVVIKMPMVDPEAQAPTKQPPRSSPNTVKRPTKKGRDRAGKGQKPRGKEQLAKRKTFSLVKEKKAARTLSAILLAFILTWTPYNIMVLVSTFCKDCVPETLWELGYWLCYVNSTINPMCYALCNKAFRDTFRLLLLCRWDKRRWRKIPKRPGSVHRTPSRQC
Description: as §1, §2

[7] = target: T5, M3 acetylcholine GPCR (Homo sapiens, UniProt P20309); test: Radioligand binding assay, M3 receptor (transfected CHO cells); settings: antagonist 1 μM
T5 construct: host or cells: CHO cells
T5 sequence (P20309 whole entry): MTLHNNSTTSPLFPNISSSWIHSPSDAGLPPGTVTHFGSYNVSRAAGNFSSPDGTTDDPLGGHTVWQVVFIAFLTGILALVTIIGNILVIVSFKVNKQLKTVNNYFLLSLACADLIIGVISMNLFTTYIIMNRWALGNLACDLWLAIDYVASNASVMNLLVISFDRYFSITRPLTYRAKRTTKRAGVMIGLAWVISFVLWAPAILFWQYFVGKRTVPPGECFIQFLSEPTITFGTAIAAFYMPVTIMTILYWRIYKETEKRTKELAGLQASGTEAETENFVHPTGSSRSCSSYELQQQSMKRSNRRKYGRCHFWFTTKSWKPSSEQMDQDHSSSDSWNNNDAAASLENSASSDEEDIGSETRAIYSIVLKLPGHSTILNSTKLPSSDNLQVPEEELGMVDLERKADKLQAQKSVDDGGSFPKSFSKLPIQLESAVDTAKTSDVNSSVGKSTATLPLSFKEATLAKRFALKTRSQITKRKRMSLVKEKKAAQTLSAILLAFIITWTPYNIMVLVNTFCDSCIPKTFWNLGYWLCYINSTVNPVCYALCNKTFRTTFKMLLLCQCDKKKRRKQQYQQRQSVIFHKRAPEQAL
Description: as §1, §2

[8] = target: T6, M4 acetylcholine GPCR (Homo sapiens, UniProt P08173); test: Radioligand binding assay, M4 receptor (transfected CHO cells); settings: antagonist 1 μM
T6 construct: host or cells: CHO cells
T6 sequence (P08173 whole entry): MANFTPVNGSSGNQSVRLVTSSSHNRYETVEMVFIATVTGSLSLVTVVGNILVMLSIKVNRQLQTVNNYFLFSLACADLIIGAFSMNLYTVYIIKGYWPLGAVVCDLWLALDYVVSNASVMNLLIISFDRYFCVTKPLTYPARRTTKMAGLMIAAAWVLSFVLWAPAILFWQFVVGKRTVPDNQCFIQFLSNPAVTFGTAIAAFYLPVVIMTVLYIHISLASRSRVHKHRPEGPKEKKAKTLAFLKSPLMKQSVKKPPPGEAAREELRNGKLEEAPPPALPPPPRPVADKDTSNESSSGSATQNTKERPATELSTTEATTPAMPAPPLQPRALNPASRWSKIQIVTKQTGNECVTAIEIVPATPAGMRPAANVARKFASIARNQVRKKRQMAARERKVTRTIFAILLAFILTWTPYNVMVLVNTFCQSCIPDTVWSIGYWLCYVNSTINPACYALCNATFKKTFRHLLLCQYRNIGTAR
Description: as §1, §2

[9] = In vitro microsomal stability assay, human; format: in vitro ADME; settings: pH 7.4; human liver microsomes, 1 μM compound, 37°C; read-out: Half-life (min) Mean (N = 2)
Description: The stability of IEM-1460 in the presence of guinea pig liver microsomes (BioIVT, PN: X008070) or IEM-1925 in the presence of human (BioIVT, PN: M00101), mouse, or guinea pig liver microsomes was evaluated (Paraza Pharma, Inc., Montreal, Quebec, Canada). Both IEM-1925 and IEM-1460 were incubated with microsomes at 37°C for a total of 45 min. Working solutions were prepared in 100 mM potassium phosphate buffer and the final reaction was performed at pH 7.4 in 100 mM potassium phosphate buffer containing 0.5 mg/mL liver microsomal protein. Phase I metabolism was assessed by adding NADPH to a final concentration of 1 mM and collecting samples at time points 0, 5, 15, 30, and 45 min. All collected samples were quenched 1:1 with ice-cold stop solution (1 μM labetalol and 1 μM glyburide in acetonitrile) and centrifuged to remove precipitated protein. […] Samples were analyzed by LC-MS/MS using a Thermo Vanquish UPLC and a Thermo Quantis triple quadrupole mass spectrometer. […] Reference compounds were also assessed to ensure accuracy and precision of experimental protocol: imipramine and verapamil for human liver microsomes, diphenhydramine and verapamil for mouse liver microsomes, and warfarin and verapamil for guinea pig liver microsomes. […] Half-life was determined from a plot of the natural logarithm of the peak area ratio (remaining compound peak area/internal standard peak area) against time. […]

[10] = Metabolic stability in vitro as summarised in the abstract (species not given); format: in vitro ADME; settings: mouse, guinea pig, human, liver microsomes, pH 7.4
Description: The stability of IEM-1460 in the presence of guinea pig liver microsomes (BioIVT, PN: X008070) or IEM-1925 in the presence of human (BioIVT, PN: M00101), mouse, or guinea pig liver microsomes was evaluated (Paraza Pharma, Inc., Montreal, Quebec, Canada). Both IEM-1925 and IEM-1460 were incubated with microsomes at 37°C for a total of 45 min. Working solutions were prepared in 100 mM potassium phosphate buffer and the final reaction was performed at pH 7.4 in 100 mM potassium phosphate buffer containing 0.5 mg/mL liver microsomal protein. Phase I metabolism was assessed by adding NADPH to a final concentration of 1 mM and collecting samples at time points 0, 5, 15, 30, and 45 min. All collected samples were quenched 1:1 with ice-cold stop solution (1 μM labetalol and 1 μM glyburide in acetonitrile) and centrifuged to remove precipitated protein. […] Samples were analyzed by LC-MS/MS using a Thermo Vanquish UPLC and a Thermo Quantis triple quadrupole mass spectrometer. […] Reference compounds were also assessed to ensure accuracy and precision of experimental protocol: imipramine and verapamil for human liver microsomes, diphenhydramine and verapamil for mouse liver microsomes, and warfarin and verapamil for guinea pig liver microsomes. […] Half-life was determined from a plot of the natural logarithm of the peak area ratio (remaining compound peak area/internal standard peak area) against time.

[11] = test system: non-pyramidal cells (expressing mainly GluA2-lacking CP-AMPARs); design: method as in Tikhonov et al., 2000; settings: 2000, cited from earlier work; for IC50: rat hippocampus ref Tikhonov et al.; for apparent selectivity for CP- over CI-AMPARs: ref Tikhonov et al.

T1 sequence (Q12809 whole entry): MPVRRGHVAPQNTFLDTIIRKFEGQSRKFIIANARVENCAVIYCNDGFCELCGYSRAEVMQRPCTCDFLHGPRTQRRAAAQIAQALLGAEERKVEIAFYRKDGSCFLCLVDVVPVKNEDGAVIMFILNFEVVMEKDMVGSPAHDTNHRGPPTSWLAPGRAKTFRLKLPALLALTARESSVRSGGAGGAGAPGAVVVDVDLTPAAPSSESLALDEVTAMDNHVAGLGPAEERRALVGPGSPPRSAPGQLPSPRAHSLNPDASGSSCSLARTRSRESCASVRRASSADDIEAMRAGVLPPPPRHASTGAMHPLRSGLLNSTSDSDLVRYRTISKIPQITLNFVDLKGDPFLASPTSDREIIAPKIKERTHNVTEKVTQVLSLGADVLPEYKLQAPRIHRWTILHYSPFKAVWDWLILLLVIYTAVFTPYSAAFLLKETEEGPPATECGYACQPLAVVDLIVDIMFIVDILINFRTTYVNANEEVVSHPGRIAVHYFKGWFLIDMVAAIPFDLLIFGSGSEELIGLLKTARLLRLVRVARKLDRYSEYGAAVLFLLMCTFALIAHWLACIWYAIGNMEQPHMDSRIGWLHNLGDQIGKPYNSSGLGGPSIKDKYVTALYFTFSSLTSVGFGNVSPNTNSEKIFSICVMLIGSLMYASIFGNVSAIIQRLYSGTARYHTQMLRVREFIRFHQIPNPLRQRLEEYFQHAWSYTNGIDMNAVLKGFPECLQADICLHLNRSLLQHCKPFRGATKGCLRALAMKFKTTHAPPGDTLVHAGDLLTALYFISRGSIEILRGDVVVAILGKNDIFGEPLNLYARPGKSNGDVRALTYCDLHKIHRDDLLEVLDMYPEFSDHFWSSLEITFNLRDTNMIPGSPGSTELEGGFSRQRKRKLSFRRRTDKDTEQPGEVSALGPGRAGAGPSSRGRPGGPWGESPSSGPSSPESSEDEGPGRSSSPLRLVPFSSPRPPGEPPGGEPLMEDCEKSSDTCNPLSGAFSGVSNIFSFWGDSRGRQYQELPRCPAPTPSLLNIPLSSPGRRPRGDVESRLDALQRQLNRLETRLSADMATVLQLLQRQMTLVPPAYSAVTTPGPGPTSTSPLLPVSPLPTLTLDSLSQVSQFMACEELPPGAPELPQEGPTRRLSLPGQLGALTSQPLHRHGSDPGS

Row | SMILES | inhibition at 1 μM [1] [%] | Mean% inhibition (N = 2) of radioligand binding [2] [%] | Mean% inhibition (N = 2) of radioligand binding [3] [%] | Mean% inhibition (N = 2) of radioligand binding [4] [%] | Mean% inhibition (N = 2) of radioligand binding [5] [%] | Mean% inhibition (N = 2) of radioligand binding [6] [%] | Mean% inhibition (N = 2) of radioligand binding [7] [%] | Mean% inhibition (N = 2) of radioligand binding [8] [%] | half-life at 1 μM [9] [min] | half-life [10] [h] | IC50 [11] [nM] | apparent selectivity for CP- over CI-AMPARs [11]
1 | C[N+](C)(C)CCCCCNCC12CC3CC(CC(C3)C1)C2 [IEM-1460] | < 5 | <1 | <1 | <1 | <1 | <1 | 15 | 37 | > 300 | > 5 | ~3000 | ~ 300 fold
2 | NCCCCCNC1(c2ccccc2)CCCCC1 [IEM-1925] | < 1 | <1 | 9.5 | <1 | <1 | <1 | <5 | 19 | > 300 | > 5 | ~1000 | ~ 300 fold
